For 36 molecules, IC50 results are on record in patent US5753661A, “Fused benzo compounds containing a nitrogen heterocycle for the treatment of central nervous system disorders” (priority 1992, dated 1998).

Where two headings read alike, the source gives them in different places.

This test has as its target T1, 5-HT1A receptor (Rattus norvegicus, UniProt P19327).
T1 sequence (P19327 1-422): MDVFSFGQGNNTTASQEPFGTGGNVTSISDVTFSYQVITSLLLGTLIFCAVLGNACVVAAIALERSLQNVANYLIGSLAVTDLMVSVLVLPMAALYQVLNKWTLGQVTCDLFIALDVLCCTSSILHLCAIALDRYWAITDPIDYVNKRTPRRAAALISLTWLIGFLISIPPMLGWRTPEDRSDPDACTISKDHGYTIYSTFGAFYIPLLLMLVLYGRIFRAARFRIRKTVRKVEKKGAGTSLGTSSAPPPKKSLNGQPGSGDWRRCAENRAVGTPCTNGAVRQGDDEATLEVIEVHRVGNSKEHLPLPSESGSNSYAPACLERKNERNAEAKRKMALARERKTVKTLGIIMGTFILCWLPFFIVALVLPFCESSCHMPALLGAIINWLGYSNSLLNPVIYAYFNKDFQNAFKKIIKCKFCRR
Nature of the test: Inhibition of 3H-8-OH-DPAT binding to serotonin 5-HT1A receptors in rat brain in vitro. More on the design: 5-HT1A receptors in membranes from rat brain minus cerebellum; from tissue; host or cells: rat brain minus cerebellum, membranes. As for the experimental part: Inhibition of ^3 H-8-OH-DPAT Binding to Serotonin 5-HT1A Receptors in Rat Brain in vitro.
By this method the inhibition by drugs of the binding of the 5-HT1A agonist 3H-8-OH-DPAT (1 nM) to 5-HT1A receptors in membranes from rat brain minus cerebellum is determined in vitro . Accordingly, this is a test for affinity for the 5-HT1A receptor. The assay was performed as described by Hyttel et al., Drug Dev. Res. 1988, 15, 389-404.

The mark [1] stands for this setting: 3H-8-OH-DPAT 1 nM, membranes from rat brain minus cerebellum, read-out: IC50, 3H 8-OH-DPAT binding.

For the molecule `CC1(C)Cc2cccc(N3CCN(CCCN4CCN(c5ccccc5)C4=O)CC3)c2O1` [Compound 2ff, 1-[3-[4-(2,3-Dihydro-2,2-dimethylbenzofuran-7-yl)-1-piperazinyl]-1-propyl]-3-phenyl-2-imidazolidinone], under setting [1], the IC50 (commonly the midpoint of a concentration-inhibition curve) turned out to be 6.6 nM.
The same measure, in the same setting: the same measure for `CC1(C)Cc2cccc(N3CCN(CCCCN4CCN(c5cccc6ccccc56)C4=O)CC3)c2O1` [Compound 2jj, 1-[4-[4-(2,3-Dihydro-2,2-dimethylbenzofuran-7-yl)-1-piperazinyl]-1-butyl]-3-(1-naphtyl)-2-imidazolidinone]: 1.1 nM; for `O=C1N(CCN2CCN(c3cccc4c3OCCO4)CC2)CCN1C12CC3CC(CC(C3)C1)C2` [Compound 2q, 1-Adamantyl-3-[2-[4-(1,4-benzodioxan-5-yl)-1-piperazinyl]ethyl]-2-imidazolidinone]: 13 nM.
On to `O=c1n(CCN2CCN(c3cccc4c3OCCO4)CC2)c2ccccc2n1-c1ccc(F)cc1` [Compound 12a, 1-[2-[4-(1,4-Benzodioxan-5-yl)-1-piperazinyl]ethyl]-3-(4-fluorophenyl)-2(3H)-benzimidazolone], for which, under setting [1], the IC50 was found to be 36 nM.
Still for that read-out and setting: the same measure for `CC1(C)COc2c(N3CCN(CCCCCCN4CCN(C5CCCC5)C4=O)CC3)cc(Cl)cc21` [Compound 2pp]: 20 nM; for `O=C1N(CCCN2CCN(c3cccc4c3OCCO4)CC2)CCN1C1CCCCC1` [Compound 4c, 1-[3-[4-(1,4-Benzodioxan-5-yl)-1-piperazinyl]-1-propyl]-3-cyclohexyl-2-imidazolidinone]: 19 nM; for `CCN1CCN(CCCN2CCN(c3cccc4c3OCCO4)CC2)C1=O` [Compound 4b, 1-[3-[4-(1,4-Benzodioxan-5-yl)-1-piperazinyl]-1-propyl]-3-ethyl-2-imidazolidinone]: 40 nM.
As to `O=C1N(CCN2CCN(c3cccc4ccsc34)CC2)CCN1c1ccccc1` [Compound 2t, 1-[2-(4-Benzo[b]thiophen-7-yl-1-piperazinyl)ethyl]-3-phenyl-2-imidazolidinone], the IC50 under setting [1] came to 15 nM.
The same measure, in the same setting: under `O=C1N(CCN2CCN(c3cccc4cc[nH]c34)CC2)CCN1C1CCCC1` [Compound 2u, 1-Cyclopentyl-3-[2-[4-(7-indolyl)-1-piperazinyl]ethyl]-2-imidazolidinone] stands 110 nM; under `CC1(C)Cc2cccc(C3CCN(CCCCN4CCN(C5CCCCC5)C4=O)CC3)c2O1` [Compound 11a, 1-Cyclohexyl-3-[4-[4-(2,3-dihydro-2,2-dimethylbenzofuran-7-yl)-1-piperidinyl]-1-butyl]-2-imidazolidinone], 3.5 nM.
On the same count and under the same terms, the same measure for `O=c1n(CCN2CCN(c3cccc4c3OCCO4)CC2)ccn1-c1ccccc1` [Compound 5b, 1-[3-[4-(1,4-Benzodioxan-5-yl)-1-piperazinyl]-ethyl]-1,3-dihydro-3-phenyl-2-imidazolone]: 12 nM; for `CC1(C)Cc2c(N3CCN(CCCN4CCN(C5CCCCC5)C4=O)CC3)ccc(Cl)c2O1` [Compound 2qq]: 300 nM.
With `CCOC(=O)c1cc2cccc(N3CCN(CCN4CCN(c5ccccc5)C4=O)CC3)c2[nH]1` [Compound 2j, Ethyl 7-[4-[2-(3-phenyl-2-imidazoidin-2-on-1-yl)ethyl]-1-piperazinyl]-2-indolyl carboxylate], the IC50 under setting [1] was 53 nM.
On the same count and under the same terms, the same measure for `O=C1N(CCN2CCN(c3cccc4[nH]ccc34)CC2)CCN1c1ccccc1` [Compound 2z, 1-[2-[4-(4-Indolyl)-1-piperazinyl]ethyl]-3-phenyl-2-imidazolidinone]: 34 nM; for `NC(=O)c1cc2c(N3CCN(CCN4CCN(C5CCCC5)C4=O)CC3)cccc2o1` [Compound 8a, 4-[4-[2-(3-Cyclopentyl-2-imidazolidinon-1-yl)ethyl]-1-piperazinyl]-2-benzofuranylcarboxamide]: 3.9 nM.
Still for that read-out and setting: under `CS(=O)(=O)CCCN1CCN(c2cccc3c2OCC3)CC1` [Compound 1d, 1-(2,3-Dihydrobenzofuran-7-yl)-4-(3-methylsulfonyl-1-propyl)piperazine] stands 190 nM.
The same measure, in the same setting: under `O=C1N(CCCN2CCN(c3cccc4c3OCCO4)CC2)CCN1Cc1ccccc1` [Compound 4a, 1-[3-[4-(1,4-Benzodioxan-5-yl)-1-piperazinyl]-1-propyl]-3-benzyl-2-imidazolidinone] stands 18 nM; under `CCN1CCN(CCN2CCN(c3cccc4c3OCCO4)CC2)C1=O` [Compound 2l, 1-[2-[4-(1,4-Benzodioxan-5-yl)-1-piperazinyl]ethyl]-3ethyl-2-imidazolidinone], 72 nM.
For the molecule `CC1(C)Cc2cc(F)cc(N3CCN(CCCCN4CCN(c5ccc(F)cc5)C4=O)CC3)c2O1` [Compound 2ll, 1-[4-[4-(2,3-Dihydro-2,2-dimethyl-5-fluorobenzofuran-7-yl)-1-piperazinyl]-1-butyl]-3-(4-fluorophenyl)-2-imidazolidinone], the IC50 under setting [1] amounted to 10 nM.
Take `O=C1N(CCN2CCN(c3cccc4c3ccn4-c3ccc(F)cc3)CC2)CCN1C1CCCC1` [Compound 7a, 1-Cyclopentyl-3-[2-[4-[1-(4-fluorophenyl)-4-indolyl]-1-piperazinyl]ethyl]-2-imidazolidinone]: the IC50 under setting [1] was 51000 nM.
Same read-out and setting: the same measure for `O=C1N(CCN2CCN(c3cccc4ccccc34)CC2)CCN1c1ccccc1` [Compound 2k, 1-[2-[4-(1-Naphtyl)-1-piperazinyl]ethyl]-3-phenyl-2-imidazolidinone]: 15 nM.
In the case of `CC1(C)Cc2cccc(C3=CCN(CCCCN4CCN(C5CCCCC5)C4=O)CC3)c2O1` [Compound 10a, 1-Cyclohexyl-3-[4-[4-(2,3-dihydro-2,2-dimethylbenzofuran-7-yl)-1,2,3,6-tetrahydropyrid-1-yl]-1-butyl]-2-imidazolidinone], the IC50 came to 1.2 nM.
For `O=C1N(CCCCN2CCN(c3cc(Cl)cc4cc(-c5ccccc5)oc34)CC2)CCN1C1CCCCC1` [Compound 2hh, 1-[4-[4-(5-Chloro-2-phenylbenzofuran-7-yl)-1-piperazinyl]-1-butyl]-3-cyclohexyl-2-imidazolidinone], the IC50 under setting [1] was found to be 130 nM.
On the same count and under the same terms, under `O=C1N(CCN2CCN(c3cccc4cnsc34)CC2)CCN1c1ccccc1` [Compound 2x, 1-[2-[4-(1,2-Benzisothiazol-7-yl)-1-piperazinyl]ethyl]-3-phenyl-2-imidazolidinone] stands 75 nM; under `O=S(=O)(CCN1CCN(c2cccc3c2OCC3)CC1)C1CCCCC1` [Compound 6a, 1-(2-Cyclohexylsulfonyl-1-ethyl)-4-(2,3-dihydrobenzofuran-7-yl)piperazine], 220 nM; under `O=C1N(CCN2CCN(c3cccc4ccsc34)CC2)CCN1C1CCCC1` [Compound 2aa, 1-[2-[4-Benzo[b]thiophen-7-yl-1-piperazinyl]ethyl]-3-cyclopentyl-2-imidazolidinone], 11 nM.
Same read-out and setting: the same measure for `CC(C)(C)N1CCN(CCN2CCN(c3cccc4c3OCCO4)CC2)C1=O` [Compound 2ee]: 43 nM; for `CC1(C)COc2c(N3CCN(CCCCCCN4CCN(C5CCCC5)C4=O)CC3)cccc21` [Compound 14c]: 7.5 nM.
Regarding `CC1(C)COc2c(N3CCN(CCN4CCN(C5CCCC5)C4=O)CC3)cccc21` [Compound 14b], the IC50 under setting [1] came out at 38 nM.
On the same count and under the same terms, the same measure for `O=C1N(CCN2CCN(c3cc(Cl)cc4cc(-c5ccccc5)oc34)CC2)CCN1C1CCCC1` [Compound 2ii, 1-[2-[4-(5-Chloro-2-phenylbenzofuran-7-yl)-1-piperazinyl]ethyl]-3-cyclopentyl-2-imidazolidinone]: 300 nM; for `O=C1N(CCN2CCN(c3cccc4cc(-c5ccccc5)oc34)CC2)CCN1C1CCCC1` [Compound 14a, 1-Cyclopentyl-3-[2-[4-(2-phenylbenzofuran-7-yl)-1-piperazinyl]ethyl]-2-imidazolidinone]: 9.7 nM; for `O=C1N(CCN2CCN(c3cccc4c3NCC4)CC2)CCN1C1CCCC1` [Compound 9a, 1-Cyclopentyl-3-[2-[4-(7-indolinyl)-1-piperazinyl]ethyl]-2-imidazolidinone]: 230 nM.
Still for that read-out and setting: under `O=c1n(CCCCN2CCN(c3cccc4c3OCCO4)CC2)c2ccccc2n1-c1ccc(F)cc1` [Compound 13a, 1-[4-[4-(1,4-Benzodioxan-5-yl)-1-piperazinyl]-1-butyl]-3-(4-fluorophenyl)-2(3H)-benzimidazolone] stands 22 nM; under `O=C1N(CCN2CCN(c3cccc4cc[nH]c34)CC2)CCN1c1ccccc1` [Compound 2v, 1-[2-[4-(7-Indolyl)-1-piperazinyl]ethyl]-3-phenyl-2-imidazolidinone], 71 nM.
Consider `CC1(C)Cc2cccc(N3CCN(CCCN4CCN(C5CCCCC5)C4=O)CC3)c2O1` [Compound 2kk, 1-Cyclohexyl-3-[3-[4-(2,3-dihydro-2,2-dimethylbenzofuran-7-yl)-1-piperazinyl]-1-propyl]-2-imidazolidinone], for which the IC50 under setting [1] was determined as 5.7 nM.
Consider `O=C1N(CCN2CCN(c3cccc4nsnc34)CC2)CCN1c1ccccc1` [Compound 2h, 4-[4-[2-(3-Phenylimidazolidin-2-on-1-yl)ethyl]-1-piperazinyl]-2,1,3-benzothiadiazole], for which the IC50 under setting [1] came to 28 nM.
